# Measured values from publication PMC9698201, “Factors Affecting Cellular Uptake of Anthocyanins: The Role of pH, Glucose and Anthocyanin Structure” (Nutrients, 2022).
# Assays:
# [1] = Anthocyanin stability during 1 h incubation at pH 7 and 6.5; type: physicochemical
# Method: To assess degradation due to the pH, strawberry juice extract was incubated under the same conditions in the absence of the cells (Figure 3II). […] Anthocyanins can form additional compounds important for copigmentation with phenolic acids and can form pyranoanthocyanins.
# The increased uptake with decreasing pH may be linked to the anthocyanins stability and indicate the involvement of pH dependent transport mechanisms involving a proton co-transporter.
# Caco-2 cells = assay: Uptake experiment, anthocyanins taken up by cells quantified by HPLC; type: in vitro ADME, human; settings: for increase in uptake with decreasing pH from 7 to 6.5: 10 µM strawberry anthocyanins; for uptake reduction in the presence of glucose: 20 µM red grape anthocyanin extract, 1 mM glucose vs control without glucose; for Normalised Uptake (%): extrapolated to initial amount 10 µg/10 mL, intercept set at zero; for Uptake (%): 1 h, % of initial concentration
# Method: Caco-2 cells were seeded at a density of 5 × 10^5 cells in a Petri dish of 10 cm diameter with a volume of 10 mL, containing DMEM supplemented with 10% FBS, 1% NEAA and 1% penicillin and streptomycin. […] Caco-2 cells were used between passages 65–76. The medium was changed every 2–3 days. On day 14, the cells were ready for the uptake experiment. Prior to the study, the medium were removed, and the cells were rinsed with PBS.
# The effect of anthocyanin structure was examined using anthocyanin extract from strawberry at 10 and 20 µM while the effect of glucose was performed at 20 µM red grape anthocyanin extract in the presence of 1 mM glucose. Additionally, 10 µM strawberry anthocyanins at pH 6.5 and 7 was used to examine the effect of pH on anthocyanin uptake.
# Briefly anthocyanin stock solution was diluted to a final concentration of 10 or 20 µM in DPBS. The anthocyanins (10 mL) were immediately added to the cells, and subsequently incubated at 37 °C for 1h. Following the incubation, DPBS containing anthocyanins was removed and the cells were washed with PBS three times. The anthocyanins taken up by the cells were extracted with 6% formic acid and scraped off for collection. The extract along with the scraped cells were then sonicated, followed by centrifugation at 4 °C, 1700× g for 10 min. The supernatant was filtered and dried under nitrogen. The dry anthocyanins were redissolved in 200 µL of aqueous formic acid containing 10% acidified methanol, and then filtered into the insert prior to HPLC analysis.
# HPLC was used to identify and quantify anthocyanins present in juices and cellular extract following the uptake experiment. Anthocyanin standards and their standard curves were used to identify and quantify different anthocyanin structure present in juices and cellular extracts by determining their area under curve. The analysis was performed using an Agilent 1200 series HPLC with quaternary pump and diode array UV-visible detector. Sample (50 µL) was injected onto a reverse phase column of Nova-pak@C18 4 µm, with dimensions of 4.6 × 250 mm (Waters) equipped with a guard column. The mobile phases were 1% aqueous formic acid as solvent A and acetonitrile as solvent B. The flow rate was 1 mL/min with a column temperature of 35 °C. […] Solvent B was maintained at 100% for 5 min, and returned to 100% solvent A and 0% solvent B at 60 min. Wavelengths of 280 and 520 nm were chosen to detect the anthocyanins.
# [2] = Extrapolation of Caco-2 uptake to jejunum uptake and blood/plasma concentration; settings: absorption of 0.88 mg, assuming 5 litres of blood
# [3] = design: method as in PMID 18211024; settings: strawberries containing 222 µmol pelargonidin-3-O-glucoside ingested; cited from earlier work
# [4] = strawberry anthocyanins at 10 µM, initial amount Cn 1.91, Pg 45.69, Pg-rham 14.50 µg/10 mL
# [5] = strawberry anthocyanins at 20 µM, initial amount Cn 3.89, Pg 95.23, Pg-rham 29.59 µg/10 mL
Compound,"stability ([1]; pH 6.5, 1 h incubation) [%]","stability ([1]; pH 7, 1 h incubation) [%]",increase in uptake with decreasing pH from 7 to 6.5 (Caco-2 cells) [%],uptake reduction in the presence of glucose (Caco-2 cells),Normalised Uptake (%) (Caco-2 cells),Uptake (%) (Caco-2 cells; [4]),further results
OC[C@H]1O[C@@H](Oc2cc3c(O)cc(O)cc3[o+]c2-c2ccc(O)c(O)c2)[C@H](O)[C@@H](O)[C@@H]1O [cyanidin-3-glucoside],88.7,63.1,139,67%,0.159,2.32 × 10^−2%,"Uptake (%) (Caco-2 cells; strawberry anthocyanins at 20 µM, initial amount Cn 3.89, Pg 95.23, Pg-rham 29.59 µg/10 mL, listed as Cn): 6.54 × 10^−2%"
OC[C@H]1O[C@@H](Oc2cc3c(O)cc(O)cc3[o+]c2-c2cc(O)c(O)c(O)c2)[C@H](O)[C@@H](O)[C@@H]1O [delphinidin-3-glucoside],–,–,–,42%,–,–,–
COc1cc(-c2[o+]c3cc(O)cc(O)c3cc2O[C@@H]2O[C@H](CO)[C@@H](O)[C@H](O)[C@H]2O)cc(OC)c1O [malvidin-3-glucoside],–,–,–,69–72%,–,–,–
OC[C@H]1O[C@@H](Oc2cc3c(O)cc(O)cc3[o+]c2-c2ccc(O)cc2)[C@H](O)[C@@H](O)[C@@H]1O [pelargonidin-3-glucoside],93.7,67.7,118,–,0.007,2.88 × 10^−2%,Uptake (%) (Caco-2 cells; [5]): 6.95 × 10^−2%; blood concentration [2]: 400 nM; plasma concentration [2]: 727 nM
COc1cc(-c2[o+]c3cc(O)cc(O)c3cc2O[C@@H]2O[C@H](CO)[C@@H](O)[C@H](O)[C@H]2O)cc(O)c1O [petunidin-3-glucoside],–,–,–,69–72%,–,–,–
pelargonidin-3-rhamnosylglucoside,91.8,72.3,88,–,0.02,2.66 × 10^−2%,Uptake (%) (Caco-2 cells; [5]): 5.93 × 10^−2%
pelargonidin-O-glucuronide,–,–,–,–,–,–,peak plasma concentration [3]: 274 ± 24 nM; time of peak plasma concentration [3]: 1.1 ± 0.4 h
